From patent US20150017665A1, “Peptides and Methods for Detecting MPO-ANCA” (The University of North Carolina at Chapel Hill, priority 2012, published 2015)

What was measured:
[1] = test system: anti-MPO antibodies of immunized DR2 Tg mice; experiment: Epitope excision MS of IgG from immunized DR2 Tg mice with recombinant mouse MPO; type: binding; details: DR2 Tg mice immunized with MPO aa442-460
Experimental: Mass spectrometry analysis of ANCA-negative IgG and mouse IgG samples were conducted as above. With the exception of protein substrate, immobilized ANCA-negative IgG were exposed to whole leukocyte lysate preparation from a healthy donor and mouse IgG to recombinant mouse MPO (R&D Systems).
As HLA-MHC II help shape the B and T cell repertoires, and consequently the response to foreign and self-antigens, we wanted to define the epitope specificity of the anti-MPO autoantibodies that could be induced experimentally using DR2 Tg mice. In this way, we could assess development of the anti-MPO antibody response after immunization of a single epitope in the context of a human MHC II. IgG from sera of immunized mice was profiled for anti-MPO epitope specificity using epitope excision MS. DR2 Tg mice developed antibodies targeting the human B cell epitope aa447-459 which is within a conserved region of both murine and human MPO. Unpredictably, immunized DR2 Tg mice initiated a polyclonal response producing autoantibodies against the entire MPO molecule. The epitope profile was astonishingly similar to that of the MPO-ANCA human profile (Table 6), indicative of the critical nature of this epitope.

MPO-ANCA = experiment: Epitope excision MALDI-TOF/TOF MS of patient and healthy Ig with native MPO; type: binding; design: key: HC: Healthy control; Active disease; Remission; details: human Ig
Text: Total immunoglobulin (IgG) was purified from sera using protein A/G PLUS-Agarose Reagent according to commercial protocol (Santa Cruz Biotechnology). Purified IgG was immobilized on CNBr-activated Sepharose 4B (GE Healthcare) in compact reaction columns (CRC, USB Corporation) and exposed to native MPO protein (MPO, Elastin Products Co, Inc) followed by digestion with sequencing grade TPCK-treated trypsin (Worthington). MPO-peptides remaining bound to IgG after digestion were eluted with 0.1% trifluoro acetic acid and analyzed on a 4800 Plus Matrix-Assisted Laser Desorption Ionization Time of Flight Mass Spectrometry (MALDI TOF/TOF MS/MS) in conjunction with ProteinPilot software (AB SCIEX).
To identify epitopes of low titer autoantibodies, ^18O labeling (Mirza et al., J. Proteome Res. 7:3042 (2008)) was used to differentiate between the signal and the noise in the MS and MSMS spectra using the 4 Da shifts between the corresponding spectra of labeled and non-labeled peptides. Mass spectrometry analysis for epitopes recognized by MPO autoantibodies from healthy individuals, and for detection of low ANCA titers in remission samples required the use of isotope H2^18O to increase sensitivity (Cambridge Isotope Laboratories). Samples from healthy individuals (n=10) and MPO-ANCA patients in clinical remission (n=35) were processed in the presence of H2^18O. Incorporation of H2^18O on the carboxyl terminus of each proteolytic fragment of MPO during tryptic digestion, trypsin buffer was made with the isotope H2^18O as a diluent.
MPO-ANCA positive patients (n=45) from the University of North Carolina cohort (UNC) were analyzed in the initial studies. Demographics of the cohort (Table 2) indicate a predominantly Caucasian group. Approximately 40% are diagnosed with microscopic polyangiitis (MPA), 40% with renal-limited disease and 20% are diagnosed with granulomatosis with polyangiitis (GPA). To compare epitope specificities related to disease activity, longitudinal samples were analyzed to include active disease (n=52) and remission (n=35) from the UNC cohort (Tables 3 and 4). Ten healthy subjects were included in the analyses. Purified immunoglobulin (Ig) from sera samples was subjected to analysis by epitope excision MALDI-TOF/TOF mass spectrometry (depicted in FIG. 3A) to identify epitope profiles of autoantibodies reactive with MPO. In order to epitope map low titer anti-MPO antibodies from healthy subjects and from patients in disease remission, an approach was designed using the ^16O-to-^18O exchange technique, an adaptation of a proteomics-based quantification method (Mirza et al., J. Proteome Res. 7:3042 (2008)). Incorporation of H2^18O on the carboxyl termini of proteolytic fragments produces a 4 Da mass shift in the MS spectra, decipherable from background noise. MPO epitopes unique to Ig from patients with active disease were designated ‘exclusive to active disease’; epitopes identified in remission samples were designated ‘persistent during remission’; and those present in samples from healthy subjects were designated asymptomatic or ‘natural’.

DR2 Tg mice = experiment: Actively induced anti-MPO associated glomerulonephritis (peptide immunization); type: in vivo, mouse
Experimental: DR2 Tg mice (Ooi et al., Proc. Natl. Acad. Sci. USA 109:E2615 (2012); Rich et al., Eur. J. Immunol. 34:1251 (2004)) were immunized s.c. with 3×100 μg of peptide antigen (OVA323-339, n=4 or MPO442-460, n=10) first in FCA then FIA on days 0, 7 and 14. Mice were culled on day 28.
For indirect immunofluorescence, ethanol fixed thioglycolate induced peritoneal neutrophils were cytospun onto slides, purified serum IgG (1 mg/ml) was applied for 20 minutes then anti-mouse IgG Ab was detected using FITC conjugated anti-mouse IgG Ab (Silenus) (Ooi et al., Proc. Natl. Acad. Sci. USA 109:E2615 (2012); Lock, J. Clin. Pathol. 47:4 (1994)). Albuminuria was assessed by ELISA (Bethyl Laboratories) and haematuria assessed by urine test strips (Combur) from a 24 hour urine sample. Blood urea nitrogen (BUN) was measured using standard laboratory methods on serum collected at the end of experiment. Glomerular abnormalities assessed, on […], PAS stained, formalin fixed, paraffin embedded sections (≧50 glomeruli/mouse), were thickening of the capillary walls and mesangial hypercellularity (Ooi et al., J. Am. Soc. Nephrol. 20:980 (2009)). Total glomerular cell nuclei were enumerated (≧20 glomeruli/mouse). Glomerular neutrophils were detected by immunoperoxidase staining of 6 μm thick, periodate lysine paraformaldehyde fixed, frozen kidney sections using anti-Gr-1 antibodies (RB6-8C5).

[2] = compared with OVA aa323-339 immunized mice

Substance	Epitopes found in immunized mice [1]	Found in samples: Healthy control, Active disease, or Remission, (HC, A, R) (MPO-ANCA; Table 1)	Found in samples: Healthy control, Active disease, or Remission, (HC, A, R) (MPO-ANCA; Table 6)	other results
DHGLPGYNAWR (listed as Homo sapiens) [aa593-603]	DHGLPGYNAWR	A, R, HC	A, R, HC	–
FCGLPQPETVGQLGT (listed as Homo sapiens) [aa605-622]	–	A	A	–
FPTDQLTPDQER (listed as Homo sapiens) [aa237-248]	–	A, R, HC	A, R, HC	–
FQDNGR (listed as Homo sapiens) [aa369-374]	–	A	A	–
FWWENEGVFSMQQR (listed as Homo sapiens) [aa678-691]	–	A, R, HC	A, R, HC	–
IANVFTNAFR (listed as Homo sapiens) [aa490-499]	IANVFTNAFR	A	A	–
IGLDLPALNMQR (listed as Homo sapiens) [aa579-590]	IGLDLPALNMQR	A, R, HC	A, R, HC	–
IPCFLAGDTR (listed as Homo sapiens) [aa396-405]	IPCFLAGDMR	R	R	–
KYLPTYR (listed as Homo sapiens) [aa474-480]	–	A ,R	A, R	–
LFEQVMR (listed as Homo sapiens) [aa572-578]	LFEQVMR	A, R, HC	A, R, HC	–
LYQEAR (listed as Homo sapiens) [aa442-447]	–	A	A	–
LYQEARKIVGAMVQIITYR (LYQEARKIVGAMVQITTYR; listed as Homo sapiens) [aa442-460]	–	–	–	induction of MPO-reactive antibodies (DR2 Tg mice; after 28 days): MPO-reactive antibodies after 28 days; BUN (DR2 Tg mice; [2]): increased BUN values; albuminuria (DR2 Tg mice; [2]): developed albuminuria; hematuria (DR2 Tg mice; [2]): hematuria; glomerular disease (DR2 Tg mice; day 28): mild glomerular proliferation
